Experimental data reported in ChEMBL document CHEMBL1131315, “Synthesis and anticonvulsant activity of 2(3H)-benzoxazolone and 2(3H)-benzothiazolone derivatives” (J Med Chem, 1998).
The source made the active and inactive calls. The rule behind the calls is not given here.

How the values were obtained:
Rattus norvegicus [1] = test: The compound was tested for the effective oral dose to inhibit 50% of the anticonvulsant in rats.(Value in parenthesis indicate 95% confidence limits); format: functional
Sigma 2 receptor = test: Affinity on sigma 2 receptor using [3H]- DTG as radioligand
Mus musculus [2] = test: The compound was tested for anticonvulsant activity in Maximal electroshock seizure test (MES) for 4 hr in mice(ip); no activity or toxicity at 300 mg/kg; format: functional, organism-based; design: dose 300 mg/kg
Rattus norvegicus [3] = species: Rattus norvegicus; test: Protective index value is the ratio between ED50 and TD50; format: functional
Rattus norvegicus [4] = test: The compound was tested peroral dose of 30 mg/kg for 2 hours for maximal electroshock test on rats; MES= 0/4; format: functional; details: route oral
Mus musculus [5] = test: The compound was determined for the dose (mg/kg) by rotarod test at the time of peak neurotoxic effect in mice on ip administration.; format: functional
Rattus norvegicus [6] = test: The compound was tested peroral dose of 30 mg/kg for 0.25 hours for rotarod toxicity; 0/4; format: functional; details: route oral
Rattus norvegicus [7] = test: The compound was tested peroral dose of 30 mg/kg for 4 hours for maximal electroshock test on rats; MES= 1/4; format: functional; details: route oral
[8] = The compound was tested for neurologic toxicity (rotarod) test for 30 min in mice; active at 300 mg/kg; format: organism-based; design: dose 300 mg/kg; details: mouse, in vivo, 0.5 h
Mus musculus [9] = test: The anticonvulsant activity in subcutaneous pentylenetetrazole seizure test (sc Met) for 4 hr in mice; no activity or no toxicity at 300 mg/kg; format: functional, organism-based; design: dose 300 mg/kg
Rattus norvegicus [10] = test: The compound was tested peroral dose of 30 mg/kg for 4 hours for rotarod toxicity; 0/4; format: functional; details: route oral
Rattus norvegicus [11] = test: The compound was tested peroral dose of 30 mg/kg for 1 hour for maximal electroshock test on rats; MES= 1/4; format: functional; details: route oral
[12] = The compound was tested for time of peak effect (TPE) in hours for its toxicity in mice on ip administration.; format: organism-based; details: mouse, in vivo
Mus musculus [13] = test: The compound was tested to inhibit 50% of induced maximal electroshock seizure in mice on ip administration.; format: functional
[14] = The compound was tested for neurologic toxicity (rotarod) test for 4 hours in mice; no activity or no toxicity at 300 mg/kg; format: organism-based; design: dose 300 mg/kg; details: mouse, in vivo
Mus musculus [15] = test: Anticonvulsant activity in subcutaneous pentylenetetrazole seizure test for 30 min in mice; No activity/toxicity at 300 mg/kg.; format: functional, organism-based; design: dose 300 mg/kg
Rattus norvegicus [16] = test: The compound was tested peroral dose of 30 mg/kg for 0.5 hours for maximal electroshock test on rats; MES= 3/4; format: functional; details: route oral
Rattus norvegicus [17] = test: The compound was tested peroral dose of 30 mg/kg for 0.25 hours for maximal electroshock test on rats; MES= 3/4; format: functional; details: route oral
Rattus norvegicus [18] = test: The compound was tested peroral dose of 30 mg/kg for 0.5 hours for rotarod toxicity; 0/4; format: functional; details: route oral
Rattus norvegicus [19] = test: The compound was tested for the toxic dose on oral administration.; format: functional
Rattus norvegicus [20] = test: The compound was tested peroral dose of 30 mg/kg for 1 hour for rotarod toxicity; 0/4; format: functional; details: route oral
[21] = biological target: Sigma non-opioid intracellular receptor 1 (Homo sapiens) (UniProt Q99720); test: Ratio between the Ki(nM)values of sigma-2 and sigma-1; format: functional
Rattus norvegicus [22] = test: The compound was tested peroral dose of 30 mg/kg for 2 hours for rotarod toxicity; 0/4; format: functional; details: route oral
Mus musculus [23] = test: Time of peak effect in mice following i.p. administration.; format: functional
Mus musculus [24] = test: The compound was tested for anticonvulsant activity in Maximal electroshock seizure test for 30 min in mice(ip); active at 30 mg/kg; format: functional, organism-based; design: dose 30 mg/kg
Mus musculus [25] = test: Inhibition of s.c. pentylenetetrazole induced seizure in mice following i.p. administration.; format: functional
Mus musculus [26] = test: The compound was determined for the dose (mg/kg) by rotarod test at the time of peak neurotoxic effect in mice on ip administration; format: functional
Rattus norvegicus [27] = test: The compound was tested per os dose of 30 mg/kg for 1 hour for rotarod toxicity; 0/4; format: functional
Mus musculus [28] = test: The compound was tested to inhibit 50% of induced maximal electroshock seizure in mice on ip administration; format: functional
Mus musculus [29] = test: The compound was tested for anticonvulsant activity in Maximal electroshock seizure test (MES) for 30 min in mice(ip); activity at 30 mg/kg; format: functional, organism-based; design: dose 30 mg/kg
Rattus norvegicus [30] = test: The compound was tested per os dose of 30 mg/kg for 0.25 hours for rotarod toxicity; 0/4; format: functional
Rattus norvegicus [31] = test: The compound was tested for the effective oral dose to inhibit 50% of the anticonvulsant in rats.(value in parenthesis indicate 95% confidence limits).; format: functional
Mus musculus [32] = test: The compound was tested for anticonvulsant activity in subcutaneous pentylenetetrazole seizure test (sc Met) for 4 hr in mice; no activity or toxicity at 300 mg/kg; format: functional, organism-based; design: dose 300 mg/kg
[33] = The compound was tested for neurologic toxicity (rotarod) test for 4 hr in mice; no activity or toxicity at 300 mg/kg; format: organism-based; design: dose 300 mg/kg; details: mouse, in vivo
Rattus norvegicus [34] = test: The compound was tested per os dose of 30 mg/kg for 4 hours for maximal electroshock test (MES) on rats; MES= 0/4; format: functional
Rattus norvegicus [35] = test: The compound was tested per os dose of 30 mg/kg for 0.5 hours for rotarod toxicity; 0/4; format: functional
Rattus norvegicus [36] = test: The compound was tested per os dose of 30 mg/kg for 2 hours for rotarod toxicity; 0/4; format: functional
Rattus norvegicus [37] = test: The compound was tested per os dose of 30 mg/kg for 2 hours for maximal electroshock test (MES) on rats; MES= 0/4; format: functional
Mus musculus [38] = test: The compound was tested for anticonvulsant activity in subcutaneous pentylenetetrazole seizure test (sc Met) for 30 min in mice; no activity or toxicity at 300 mg/kg; format: functional, organism-based; design: dose 300 mg/kg
Rattus norvegicus [39] = test: The compound was tested per os dose of 30 mg/kg for 0.25 hours for maximal electroshock test on rats; MES= 3/4; format: functional
Mus musculus [40] = test: The compound was tested to inhibit 50% of induced subcutaneous pentylenetetrazole seizure in mice on ip administration; format: functional
Rattus norvegicus [41] = test: The compound was tested per os dose of 30 mg/kg for 4 hours for rotarod toxicity; 0/4; format: functional
[42] = The compound was tested for neurologic toxicity (rotarod) test for 30 min in mice; no activity or toxicity at 300 mg/kg; format: organism-based; design: dose 300 mg/kg; details: mouse, in vivo, 0.5 h
Rattus norvegicus [43] = test: The compound was tested per os dose of 30 mg/kg for 1 hour for maximal electroshock test (MES) on rats; MES= 1/4; format: functional
Rattus norvegicus [44] = test: The compound was tested per os dose of 30 mg/kg for 0.5 hours for maximal electroshock test (MES) on rats; MES= 2/4; format: functional

Sigma non-opioid intracellular receptor 1 (Homo sapiens), sequence (Q99720 whole entry): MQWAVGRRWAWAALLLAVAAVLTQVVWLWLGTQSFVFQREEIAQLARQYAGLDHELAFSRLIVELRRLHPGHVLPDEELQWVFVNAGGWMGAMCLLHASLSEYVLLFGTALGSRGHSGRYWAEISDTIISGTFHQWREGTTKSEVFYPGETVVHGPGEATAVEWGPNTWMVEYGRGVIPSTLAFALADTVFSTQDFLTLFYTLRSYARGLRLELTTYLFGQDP

**Q.** Which ED50 (Rattus norvegicus [1]) does the source give for `CCCc1ccc2c(c1)sc(=O)n2CCN1CCCCC1` here?
**A.** 18.6 mg/kg

**Q.** And the Ki (Sigma 2 receptor)?
**A.** 0.0181 µM

**Q.** And the MES (Mus musculus [2])?
**A.** active at 30 mg/kg

**Q.** What about the PI (Rattus norvegicus [3]) of the same compound?
**A.** 26.9

**Q.** What about the Protected/Tested (Rattus norvegicus [4]) of the same compound?
**A.** 0

**Q.** What about the TD50 (Mus musculus [5]) of the same compound?
**A.** 29.4 mg/kg

**Q.** What about the “No. of animals exhibiting toxicity / Number of animals tested” value (Rattus norvegicus [6]) of the same compound?
**A.** 0

**Q.** And the Protected/Tested (Rattus norvegicus [7])?
**A.** 1

**Q.** What about the Rotarod toxicity [8] of the same compound?
**A.** active at 300 mg/kg

**Q.** And the scMet (Mus musculus [9])?
**A.** No activity or no toxicity at 300 mg/kg

**Q.** What about the “No. of animals exhibiting toxicity / Number of animals tested” value (Rattus norvegicus [10]) of the same compound?
**A.** 0

**Q.** And the Protected/Tested (Rattus norvegicus [11])?
**A.** 1

**Q.** What about the Toxicity [12] of the same compound?
**A.** 0.25 h

**Q.** What about the ED50 (Mus musculus [13]) of the same compound?
**A.** 7.6 mg/kg

**Q.** And the Rotarod toxicity [14]?
**A.** active at 300 mg/kg

**Q.** What about the scMet (Mus musculus [15]) of the same compound?
**A.** No activity or no toxicity at 300 mg/kg

**Q.** And the Protected/Tested (Rattus norvegicus [16])?
**A.** 3

**Q.** And the Protected/Tested (Rattus norvegicus [17])?
**A.** 3

**Q.** And the “No. of animals exhibiting toxicity / Number of animals tested” value (Rattus norvegicus [18])?
**A.** 0

**Q.** And the TD50 (Rattus norvegicus [19])?
**A.** < 500 mg/kg

**Q.** And the “No. of animals exhibiting toxicity / Number of animals tested” value (Rattus norvegicus [20])?
**A.** 0

**Q.** What about the Ratio [21] of the same compound?
**A.** 29

**Q.** What about the “No. of animals exhibiting toxicity / Number of animals tested” value (Rattus norvegicus [22]) of the same compound?
**A.** 0

**Q.** What about the Activity (Mus musculus [23]) of the same compound?
**A.** 0.25 h

**Q.** What about the MES (Mus musculus [24]) of the same compound?
**A.** active at 30 mg/kg

**Q.** What about the ED50 (Mus musculus [25]) of the same compound?
**A.** > 75 mg/kg

**Q.** Which TD50 (Mus musculus [26]) does the source give for `CCC(=O)c1ccc2c(c1)sc(=O)n2C(=O)CC` here?
**A.** 145 mg/kg

**Q.** What about the Activity (Rattus norvegicus [27]) of the same compound?
**A.** 0

**Q.** What about the Ki (Sigma 2 receptor) of the same compound?
**A.** 0.67 µM

**Q.** What about the ED50 (Mus musculus [28]) of the same compound?
**A.** 19.4 mg/kg

**Q.** And the MES (Mus musculus [29])?
**A.** activity at 30 mg/kg

**Q.** And the MES (Mus musculus [2])?
**A.** activity at 30 mg/kg

**Q.** And the Activity (Rattus norvegicus [30])?
**A.** 0

**Q.** And the ED50 (Rattus norvegicus [31])?
**A.** 32.4 mg/kg

**Q.** And the scMet (Mus musculus [32])?
**A.** No activity or toxicity at 300 mg/kg

**Q.** What about the Rotarod toxicity [33] of the same compound?
**A.** No activity or toxicity at 300 mg/kg

**Q.** What about the Activity (Rattus norvegicus [34]) of the same compound?
**A.** 0

**Q.** And the Activity (Rattus norvegicus [35])?
**A.** 0

**Q.** And the Activity (Rattus norvegicus [36])?
**A.** 0

**Q.** What about the Activity (Rattus norvegicus [37]) of the same compound?
**A.** 0

**Q.** What about the Toxicity [12] of the same compound?
**A.** 0.25 h

**Q.** And the scMet (Mus musculus [38])?
**A.** No activity or toxicity at 300 mg/kg

**Q.** What about the Activity (Rattus norvegicus [39]) of the same compound?
**A.** 3

**Q.** And the ED50 (Mus musculus [40])?
**A.** > 300 mg/kg

**Q.** What about the Activity (Rattus norvegicus [41]) of the same compound?
**A.** 0

**Q.** What about the Rotarod toxicity [42] of the same compound?
**A.** No activity or toxicity at 300 mg/kg

**Q.** What about the Ratio ([21]; Cavia porcellus) of the same compound?
**A.** 11

**Q.** What about the Activity (Mus musculus [23]) of the same compound?
**A.** 0.25 h

**Q.** What about the Activity (Rattus norvegicus [43]) of the same compound?
**A.** 1

**Q.** And the Activity (Rattus norvegicus [44])?
**A.** 2
